The target in this experiment is T1, human recombinant adrenergic α2B receptor (Homo sapiens, UniProt P18089).
T1 construct: expressed in transfected cells; host or cells: CHO-K1
T1 sequence (P18089 1-450): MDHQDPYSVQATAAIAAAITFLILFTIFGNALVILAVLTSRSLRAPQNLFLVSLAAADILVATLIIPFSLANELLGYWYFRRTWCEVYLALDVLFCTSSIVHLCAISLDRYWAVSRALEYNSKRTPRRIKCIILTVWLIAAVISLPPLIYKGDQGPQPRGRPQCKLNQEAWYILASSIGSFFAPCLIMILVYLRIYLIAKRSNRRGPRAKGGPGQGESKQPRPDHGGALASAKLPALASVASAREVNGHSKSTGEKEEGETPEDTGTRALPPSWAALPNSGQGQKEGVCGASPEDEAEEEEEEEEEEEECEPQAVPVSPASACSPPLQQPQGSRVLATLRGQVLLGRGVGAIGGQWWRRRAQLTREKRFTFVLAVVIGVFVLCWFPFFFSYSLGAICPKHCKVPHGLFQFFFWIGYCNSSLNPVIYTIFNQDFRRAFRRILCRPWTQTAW
The experiment in a line: Radioligand binding, adrenergic α2B receptor ([3H]Rauwolscine). The note with it: CHO-K1 cells; for inhibition at 0.03 µM / inhibition at 0.1 µM: read-out: Percentage inhibition of ligand binding, Adrenergic α2B. The method, boiled down:
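Percent inhibition of specific [3H]Rauwolscine (2.5 nM) binding, compounds at ≤1 μM, 1% DMSO vehicle, 10 μM prazosin defining nonspecific. Receptor: human α2B expressed in CHO-K1 cells, 60 min incubation at 25 °C in Tris-HCl pH 7.4 buffer (MgCl2, EDTA, BSA); filtered, washed, counted.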

What is called inhibition is the relative decrease from the control value, in per cent. For the molecule `Cc1ccc2c(c1)c1c(n2-c2cscc2-c2ccc3cnccc3c2)CCN(C)C1` [Compound No. 68], for the setting “0.03 μM compound”, the inhibition at 0.03 µM came to 71%. Besides, for the setting “0.1 μM compound”, the “Percentage inhibition of ligand binding, Adrenergic α2B” value (“Percentage inhibition” for short) is reported as 93% and the inhibition at 0.1 µM was determined as 86%.

Regarding `Cc1ccc2c(c1)c1c(n2-c2ccccc2-c2cccn2C)CCN(C)C1` [Compound No. 100, 2,8-dimethyl-5-(2-(1-methyl-1H-pyrrol-2-yl)phenyl)-2,3,4,5-tetrahydro-1H-pyrido[4,3-b]indole], the inhibition at 0.03 µM (0.03 μM compound) came to 103%. Also, where the note is “0.1 μM compound”, the “Percentage inhibition” value is given as 109% and the inhibition at 0.1 µM turned out to be 99%.

For `Cc1ccc2c(c1)c1c(n2-c2ccccc2-c2ccc3c(ccn3C)c2)CCN(C)C1` [Compound No. 85, 2,8-dimethyl-5-(2-(1-methyl-1H-indol-5-yl)phenyl)-2,3,4,5-tetrahydro-1H-pyrido[4,3-b]indole], the inhibition at 0.03 µM (0.03 μM compound) amounted to 89%. Besides, where the note is “0.1 μM compound”, the “Percentage inhibition” value is 102% and the inhibition at 0.1 µM was determined as 98%.

As for `Cc1ccc2c(c1)c1c(n2-c2cscc2-c2ccc(S(C)(=O)=O)cc2)CCN(C)C1` [Compound No. 76], for the setting “0.03 μM compound”, the inhibition at 0.03 µM was found to be 89%. Also, under “0.1 μM compound”, the “Percentage inhibition” value stood at 100% and the inhibition at 0.1 µM turned out to be 94%.

Turning to `Cc1csc(-c2cscc2-n2c3c(c4cc(C)ccc42)CN(C)CC3)c1` [Compound 50], the inhibition at 0.03 µM (0.03 μM compound) turned out to be 97%. For the same molecule, the inhibition at 0.1 µM (0.1 μM compound) was found to be 103%.

For the molecule `Cc1ccc2c(c1)c1c(n2-c2cscc2-c2ccc(C)s2)CCN(C)C1` [Compound No. 79], the inhibition at 0.03 µM (0.03 μM compound) was 102%. Besides, the inhibition at 0.1 µM (0.1 μM compound) came to 104%.

Take `COc1ccc(-c2cscc2-n2c3c(c4cc(C)ccc42)CN(C)CC3)cc1` [Compound 37]: where the note is “0.03 μM compound”, the inhibition at 0.03 µM was 104%. For the same molecule, where the note is “0.1 μM compound”, the “Percentage inhibition” value is reported as 104% and the inhibition at 0.1 µM was found to be 96%.

As for `Cc1ccc2c(c1)c1c(n2-c2cscc2-c2ccc3c(ccn3C)c2)CCN(C)C1` [Compound 33], for the setting “0.03 μM compound”, the “Percentage inhibition” value was 102% and the inhibition at 0.03 µM turned out to be 100%. Moreover, where the note is “0.1 μM compound”, the inhibition at 0.1 µM worked out at 95%.

The record behind these values is patent publication US20140155384A1, “COMPOUNDS AND METHODS OF TREATING DIABETES” (Medivation Technologies, Inc., priority 2011, published 2014).
